{"source": "the NIST ThermoML archive (doi:10.1021/je800463k)", "experiment": "mn = molality of the nth substance listed, in mol/kg", "details": "101 kPa, Liquid; for mass density: Pycnometric method; for electrical conductivity / speed of sound / viscosity: 308.15 K; for electrical conductivity: Frequency=0.001 MHz, Alternating current cell with electrodes; for speed of sound: Frequency=2 MHz", "note": "± gives the expanded uncertainty stated by the source."}
{"smiles": "O=[N+]([O-])[O-].O=[N+]([O-])[O-].[Mg+2]", "note": "[magnesium nitrate] + CO", "values": [{"measurement": "mass density", "setting": "304.8 K, m1 = 1.259", "result": "908.91 ± 48", "unit": "kg/m3"}, {"measurement": "mass density", "setting": "304.9 K, m1 = 1.71", "result": "949.01 ± 61", "unit": "kg/m3"}, {"measurement": "mass density", "setting": "304.95 K, m1 = 0.0082", "result": "780.67 ± 1.2", "unit": "kg/m3"}, {"measurement": "mass density", "setting": "305.05 K, m1 = 0.4024", "result": "823.53 ± 16", "unit": "kg/m3"}, {"measurement": "mass density", "setting": "305.15 K, m1 = 0.0667", "result": "789.04 ± 3.1", "unit": "kg/m3"}, {"measurement": "mass density", "setting": "305.25 K, m1 = 0.2776", "result": "811.08 ± 11", "unit": "kg/m3"}, {"measurement": "mass density", "setting": "305.55 K, m1 = 0.0545", "result": "786.97 ± 2.4", "unit": "kg/m3"}, {"measurement": "mass density", "setting": "306 K, m1 = 1.875", "result": "958.63 ± 57", "unit": "kg/m3"}, {"measurement": "mass density", "setting": "306.6 K, m1 = 0.0082", "result": "778.26 ± 0.98", "unit": "kg/m3"}, {"measurement": "mass density", "setting": "306.7 K, m1 = 1.492", "result": "929.13 ± 56", "unit": "kg/m3"}, {"measurement": "mass density", "setting": "306.75 K, m1 = 1.004", "result": "879.67 ± 44", "unit": "kg/m3"}, {"measurement": "mass density", "setting": "306.8 K, m1 = 0.4024", "result": "821.82 ± 15", "unit": "kg/m3"}, {"measurement": "mass density", "setting": "306.8 K, m1 = 0.881", "result": "866.06 ± 39", "unit": "kg/m3"}, {"measurement": "mass density", "setting": "306.85 K, m1 = 0.0667", "result": "787.33 ± 3.6", "unit": "kg/m3"}, {"measurement": "mass density", "setting": "306.85 K, m1 = 0.1047", "result": "792.32 ± 5.5", "unit": "kg/m3"}, {"measurement": "mass density", "setting": "306.9 K, m1 = 1.259", "result": "907.07 ± 51", "unit": "kg/m3"}, {"measurement": "mass density", "setting": "306.95 K, m1 = 0.4555", "result": "826.52 ± 17", "unit": "kg/m3"}, {"measurement": "mass density", "setting": "307.1 K, m1 = 1.71", "result": "947.08 ± 57", "unit": "kg/m3"}, {"measurement": "mass density", "setting": "307.15 K, m1 = 0.2776", "result": "809.38 ± 11", "unit": "kg/m3"}, {"measurement": "mass density", "setting": "307.15 K, m1 = 0.782", "result": "863.84 ± 6.1", "unit": "kg/m3"}, {"measurement": "mass density", "setting": "307.25 K, m1 = 0.0545", "result": "785.27 ± 2.4", "unit": "kg/m3"}, {"measurement": "mass density", "setting": "307.55 K, m1 = 0.6276", "result": "843.81 ± 32", "unit": "kg/m3"}, {"measurement": "electrical conductivity", "setting": "m1 = 0.0082", "result": "0.1518 ± 0.0001", "unit": "S/m"}, {"measurement": "electrical conductivity", "setting": "m1 = 0.0545", "result": "0.4242 ± 0.0001", "unit": "S/m"}, {"measurement": "electrical conductivity", "setting": "m1 = 0.0667", "result": "0.4649 ± 0.0001", "unit": "S/m"}, {"measurement": "electrical conductivity", "setting": "m1 = 0.1047", "result": "0.6114 ± 0.0001", "unit": "S/m"}, {"measurement": "electrical conductivity", "setting": "m1 = 0.2776", "result": "1.172 ± 0.001", "unit": "S/m"}, {"measurement": "electrical conductivity", "setting": "m1 = 0.4024", "result": "1.476 ± 0.001", "unit": "S/m"}, {"measurement": "electrical conductivity", "setting": "m1 = 0.4555", "result": "1.559 ± 0.001", "unit": "S/m"}, {"measurement": "electrical conductivity", "setting": "m1 = 0.6276", "result": "1.867 ± 0.001", "unit": "S/m"}, {"measurement": "electrical conductivity", "setting": "m1 = 0.782", "result": "2.089 ± 0.001", "unit": "S/m"}, {"measurement": "electrical conductivity", "setting": "m1 = 0.881", "result": "2.154 ± 0.001", "unit": "S/m"}, {"measurement": "electrical conductivity", "setting": "m1 = 0.9116", "result": "2.173 ± 0.001", "unit": "S/m"}, {"measurement": "electrical conductivity", "setting": "m1 = 1.004", "result": "2.266 ± 0.001", "unit": "S/m"}, {"measurement": "electrical conductivity", "setting": "m1 = 1.259", "result": "2.359 ± 0.001", "unit": "S/m"}, {"measurement": "electrical conductivity", "setting": "m1 = 1.492", "result": "2.396 ± 0.001", "unit": "S/m"}, {"measurement": "electrical conductivity", "setting": "m1 = 1.71", "result": "2.421 ± 0.001", "unit": "S/m"}, {"measurement": "electrical conductivity", "setting": "m1 = 1.875", "result": "2.395 ± 0.001", "unit": "S/m"}, {"measurement": "speed of sound", "setting": "m1 = 0.0082", "result": "1075.4 ± 6.3", "unit": "m/s"}, {"measurement": "speed of sound", "setting": "m1 = 0.0545", "result": "1082.1 ± 6.4", "unit": "m/s"}, {"measurement": "speed of sound", "setting": "m1 = 0.0667", "result": "1083.3 ± 6.4", "unit": "m/s"}, {"measurement": "speed of sound", "setting": "m1 = 0.1047", "result": "1086 ± 6.4", "unit": "m/s"}, {"measurement": "speed of sound", "setting": "m1 = 0.2776", "result": "1106.2 ± 6.5", "unit": "m/s"}, {"measurement": "speed of sound", "setting": "m1 = 0.4024", "result": "1116.1 ± 6.5", "unit": "m/s"}, {"measurement": "speed of sound", "setting": "m1 = 0.4555", "result": "1122.4 ± 6.5", "unit": "m/s"}, {"measurement": "speed of sound", "setting": "m1 = 0.6276", "result": "1139.5 ± 6.6", "unit": "m/s"}, {"measurement": "speed of sound", "setting": "m1 = 0.782", "result": "1157.4 ± 6.7", "unit": "m/s"}, {"measurement": "speed of sound", "setting": "m1 = 0.881", "result": "1163.7 ± 6.7", "unit": "m/s"}, {"measurement": "speed of sound", "setting": "m1 = 0.9116", "result": "1165.8 ± 6.7", "unit": "m/s"}, {"measurement": "speed of sound", "setting": "m1 = 1.004", "result": "1180.7 ± 6.8", "unit": "m/s"}, {"measurement": "speed of sound", "setting": "m1 = 1.259", "result": "1200 ± 6.8", "unit": "m/s"}, {"measurement": "speed of sound", "setting": "m1 = 1.492", "result": "1227 ± 6.9", "unit": "m/s"}, {"measurement": "speed of sound", "setting": "m1 = 1.71", "result": "1247.8 ± 7", "unit": "m/s"}, {"measurement": "speed of sound", "setting": "m1 = 1.875", "result": "1256.6 ± 7.1", "unit": "m/s"}, {"measurement": "viscosity", "setting": "m1 = 0.0082", "result": "0.486 ± 0.027", "unit": "mPa·s"}, {"measurement": "viscosity", "setting": "m1 = 0.0545", "result": "0.5169 ± 0.029", "unit": "mPa·s"}, {"measurement": "viscosity", "setting": "m1 = 0.0667", "result": "0.5321 ± 0.029", "unit": "mPa·s"}, {"measurement": "viscosity", "setting": "m1 = 0.1047", "result": "0.5501 ± 0.03", "unit": "mPa·s"}, {"measurement": "viscosity", "setting": "m1 = 0.2776", "result": "0.6334 ± 0.034", "unit": "mPa·s"}, {"measurement": "viscosity", "setting": "m1 = 0.4024", "result": "0.7332 ± 0.038", "unit": "mPa·s"}, {"measurement": "viscosity", "setting": "m1 = 0.4555", "result": "0.7633 ± 0.039", "unit": "mPa·s"}, {"measurement": "viscosity", "setting": "m1 = 0.6276", "result": "0.9449 ± 0.047", "unit": "mPa·s"}, {"measurement": "viscosity", "setting": "m1 = 0.782", "result": "1.077 ± 0.053", "unit": "mPa·s"}, {"measurement": "viscosity", "setting": "m1 = 0.881", "result": "1.083 ± 0.053", "unit": "mPa·s"}, {"measurement": "viscosity", "setting": "m1 = 0.9116", "result": "1.135 ± 0.055", "unit": "mPa·s"}, {"measurement": "viscosity", "setting": "m1 = 1.004", "result": "1.233 ± 0.06", "unit": "mPa·s"}, {"measurement": "viscosity", "setting": "m1 = 1.259", "result": "1.694 ± 0.079", "unit": "mPa·s"}, {"measurement": "viscosity", "setting": "m1 = 1.492", "result": "2.044 ± 0.094", "unit": "mPa·s"}, {"measurement": "viscosity", "setting": "m1 = 1.71", "result": "2.433 ± 0.11", "unit": "mPa·s"}, {"measurement": "viscosity", "setting": "m1 = 1.875", "result": "2.765 ± 0.12", "unit": "mPa·s"}, {"measurement": "mass density", "setting": "308.35 K, m1 = 1.875", "result": "956.57 ± 57", "unit": "kg/m3"}, {"measurement": "mass density", "setting": "308.55 K, m1 = 0.0667", "result": "785.71 ± 2.9", "unit": "kg/m3"}, {"measurement": "mass density", "setting": "308.6 K, m1 = 0.4024", "result": "820.2 ± 15", "unit": "kg/m3"}]}
